In experiment [1] the target is p110β/p85α (Homo sapiens (Human), UniProt P42338). The experiment is described as follows: PI 3-Kinase (human) HTRF assay, p110β/p85α. In kind it is biochemical. The conditions noted are these: in vitro; read-out: PI3K β IC50.
Experiment [2] has as its target p110δ/p85α (Homo sapiens (Human), UniProt O00329). The experiment is described as follows: PI 3-Kinase (human) HTRF assay, p110δ/p85α. Type of experiment: biochemical. The conditions noted are these: in vitro; read-out: PI3K δ IC50. A general note: In TR-FRET formats the signal depends on donor and acceptor labels being close together.
The target of experiment [3] is p110α/p85α (Homo sapiens (Human), UniProt P42336). The experiment is described as follows: PI 3-Kinase (human) HTRF assay, p110α/p85α. Type of experiment: biochemical. The conditions noted are these: in vitro; read-out: PI3K α IC50.
Experiment [4] deals with tumor cells with a PI3Kα mutation (e.g., MDA-MB-361 and T47D). The experiment is described as follows: Proliferation of tumor cells with PI3Kα mutation. The conditions noted are these: Homo sapiens; T47D cells; read-out: T47D proliferation IC50. Type of experiment: cell-based.
Experiment [5] has as its target p110γ (Homo sapiens (Human), UniProt P48736). The experiment is described as follows: PI 3-Kinase (human) HTRF assay, p110γ. Type of experiment: biochemical. The conditions noted are these: in vitro; read-out: PI3K γ IC50.

Molecules are shown by their SMILES. A value given as a limit tells only on which side of the number the result lay.

Chain of p110α/p85α (P42336 whole entry): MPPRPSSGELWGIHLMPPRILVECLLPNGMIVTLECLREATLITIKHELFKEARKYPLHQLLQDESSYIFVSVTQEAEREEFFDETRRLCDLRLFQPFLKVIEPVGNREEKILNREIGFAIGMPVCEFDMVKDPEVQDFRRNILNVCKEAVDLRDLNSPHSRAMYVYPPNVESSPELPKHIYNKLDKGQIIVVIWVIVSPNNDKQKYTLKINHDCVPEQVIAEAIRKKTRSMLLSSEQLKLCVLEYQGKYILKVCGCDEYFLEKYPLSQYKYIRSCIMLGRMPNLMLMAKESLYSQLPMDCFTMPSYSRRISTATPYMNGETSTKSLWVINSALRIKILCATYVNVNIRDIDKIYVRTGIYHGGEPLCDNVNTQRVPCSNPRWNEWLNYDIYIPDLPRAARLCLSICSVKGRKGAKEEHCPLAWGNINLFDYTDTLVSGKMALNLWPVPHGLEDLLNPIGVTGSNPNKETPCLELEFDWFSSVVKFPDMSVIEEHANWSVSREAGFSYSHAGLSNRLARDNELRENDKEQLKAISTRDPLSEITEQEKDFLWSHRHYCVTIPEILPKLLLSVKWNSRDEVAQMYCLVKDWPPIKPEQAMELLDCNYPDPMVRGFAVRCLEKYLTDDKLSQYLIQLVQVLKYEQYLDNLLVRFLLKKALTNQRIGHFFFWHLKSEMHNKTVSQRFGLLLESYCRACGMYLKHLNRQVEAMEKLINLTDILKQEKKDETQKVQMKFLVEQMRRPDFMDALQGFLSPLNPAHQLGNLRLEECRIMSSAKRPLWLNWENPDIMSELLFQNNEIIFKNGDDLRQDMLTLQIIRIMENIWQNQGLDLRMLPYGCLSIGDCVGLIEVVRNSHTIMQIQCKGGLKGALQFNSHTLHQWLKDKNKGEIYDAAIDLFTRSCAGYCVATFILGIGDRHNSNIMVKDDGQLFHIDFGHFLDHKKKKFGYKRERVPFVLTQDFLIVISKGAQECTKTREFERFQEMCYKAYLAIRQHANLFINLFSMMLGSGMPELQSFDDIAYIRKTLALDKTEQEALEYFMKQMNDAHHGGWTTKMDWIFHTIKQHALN
Chain of p110α/p85α (P27986 whole entry partner): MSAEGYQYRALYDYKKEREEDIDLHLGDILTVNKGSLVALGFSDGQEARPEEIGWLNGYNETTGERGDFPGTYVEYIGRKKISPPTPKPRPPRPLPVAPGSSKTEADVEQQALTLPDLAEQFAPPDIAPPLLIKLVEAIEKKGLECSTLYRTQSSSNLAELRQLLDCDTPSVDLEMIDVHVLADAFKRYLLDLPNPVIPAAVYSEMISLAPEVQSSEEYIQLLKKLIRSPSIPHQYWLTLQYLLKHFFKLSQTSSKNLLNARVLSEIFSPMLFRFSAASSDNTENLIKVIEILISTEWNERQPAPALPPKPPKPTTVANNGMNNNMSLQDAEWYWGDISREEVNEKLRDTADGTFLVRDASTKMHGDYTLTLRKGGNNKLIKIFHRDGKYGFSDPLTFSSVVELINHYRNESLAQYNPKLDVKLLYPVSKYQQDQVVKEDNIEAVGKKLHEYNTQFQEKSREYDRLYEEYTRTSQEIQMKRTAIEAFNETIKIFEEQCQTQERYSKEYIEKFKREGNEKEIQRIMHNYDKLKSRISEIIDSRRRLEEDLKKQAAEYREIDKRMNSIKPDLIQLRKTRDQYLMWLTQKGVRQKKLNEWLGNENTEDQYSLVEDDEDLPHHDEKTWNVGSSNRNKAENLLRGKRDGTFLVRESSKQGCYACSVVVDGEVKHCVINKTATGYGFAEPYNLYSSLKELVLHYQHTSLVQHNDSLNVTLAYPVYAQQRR
Chain of p110δ/p85α (O00329 whole entry): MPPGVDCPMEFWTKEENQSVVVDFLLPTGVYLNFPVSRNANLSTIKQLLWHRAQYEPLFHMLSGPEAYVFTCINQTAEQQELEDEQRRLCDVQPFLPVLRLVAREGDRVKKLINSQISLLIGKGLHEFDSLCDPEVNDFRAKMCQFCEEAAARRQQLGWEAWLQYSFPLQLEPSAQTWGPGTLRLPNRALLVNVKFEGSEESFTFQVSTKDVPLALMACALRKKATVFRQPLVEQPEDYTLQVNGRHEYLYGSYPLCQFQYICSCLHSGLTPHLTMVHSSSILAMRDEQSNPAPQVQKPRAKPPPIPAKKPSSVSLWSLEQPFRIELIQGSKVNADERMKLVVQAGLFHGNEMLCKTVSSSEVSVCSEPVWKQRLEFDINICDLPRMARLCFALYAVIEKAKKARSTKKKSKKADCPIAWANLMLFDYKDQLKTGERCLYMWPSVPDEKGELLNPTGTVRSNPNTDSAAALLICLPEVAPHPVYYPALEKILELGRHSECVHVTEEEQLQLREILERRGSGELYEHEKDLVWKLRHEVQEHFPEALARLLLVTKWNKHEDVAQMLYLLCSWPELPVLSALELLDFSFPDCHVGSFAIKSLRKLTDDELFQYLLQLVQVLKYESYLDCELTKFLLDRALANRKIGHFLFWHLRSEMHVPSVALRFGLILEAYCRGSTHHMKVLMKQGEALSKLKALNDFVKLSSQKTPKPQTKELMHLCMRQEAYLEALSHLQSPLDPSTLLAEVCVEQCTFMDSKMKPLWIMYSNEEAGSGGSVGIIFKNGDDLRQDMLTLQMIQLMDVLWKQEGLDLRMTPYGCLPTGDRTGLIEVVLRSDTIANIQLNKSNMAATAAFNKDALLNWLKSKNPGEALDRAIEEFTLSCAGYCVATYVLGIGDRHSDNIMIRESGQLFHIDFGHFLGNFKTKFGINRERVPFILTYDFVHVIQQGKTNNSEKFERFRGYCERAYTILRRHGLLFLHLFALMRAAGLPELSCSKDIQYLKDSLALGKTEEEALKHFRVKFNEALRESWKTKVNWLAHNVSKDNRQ
Chain of p110δ/p85α (P27986 whole entry partner): as the sequence (P27986 whole entry partner) above
Chain of p110β/p85α (P42338 whole entry): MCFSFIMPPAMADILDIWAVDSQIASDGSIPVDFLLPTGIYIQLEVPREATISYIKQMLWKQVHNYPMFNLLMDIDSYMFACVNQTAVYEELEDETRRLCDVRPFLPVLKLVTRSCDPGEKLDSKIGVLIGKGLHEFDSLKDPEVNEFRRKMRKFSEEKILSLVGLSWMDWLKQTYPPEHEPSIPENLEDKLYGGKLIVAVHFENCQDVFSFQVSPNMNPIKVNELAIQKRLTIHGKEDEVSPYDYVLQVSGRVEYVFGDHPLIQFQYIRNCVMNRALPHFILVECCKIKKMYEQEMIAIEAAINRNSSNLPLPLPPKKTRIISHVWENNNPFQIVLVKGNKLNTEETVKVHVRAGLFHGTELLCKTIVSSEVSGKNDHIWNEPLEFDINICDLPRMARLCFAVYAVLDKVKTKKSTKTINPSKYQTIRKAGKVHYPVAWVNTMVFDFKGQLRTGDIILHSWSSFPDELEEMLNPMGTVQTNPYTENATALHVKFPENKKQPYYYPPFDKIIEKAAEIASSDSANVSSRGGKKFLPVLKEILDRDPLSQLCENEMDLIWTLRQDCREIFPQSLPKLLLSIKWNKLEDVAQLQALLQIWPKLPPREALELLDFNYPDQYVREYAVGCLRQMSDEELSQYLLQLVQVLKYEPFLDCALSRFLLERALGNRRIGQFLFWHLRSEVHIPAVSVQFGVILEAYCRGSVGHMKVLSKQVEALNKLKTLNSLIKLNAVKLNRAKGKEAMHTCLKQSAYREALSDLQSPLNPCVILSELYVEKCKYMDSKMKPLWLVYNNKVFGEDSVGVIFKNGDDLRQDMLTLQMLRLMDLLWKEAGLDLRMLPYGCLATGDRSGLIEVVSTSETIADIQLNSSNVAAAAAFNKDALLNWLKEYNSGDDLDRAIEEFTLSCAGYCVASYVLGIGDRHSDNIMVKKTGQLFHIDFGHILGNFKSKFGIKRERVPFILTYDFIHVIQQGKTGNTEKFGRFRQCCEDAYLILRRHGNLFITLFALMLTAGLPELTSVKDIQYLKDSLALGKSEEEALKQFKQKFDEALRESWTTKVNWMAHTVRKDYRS
Chain of p110β/p85α (P27986 whole entry partner): as the sequence (P27986 whole entry partner) above
Chain of p110γ (P48736 whole entry): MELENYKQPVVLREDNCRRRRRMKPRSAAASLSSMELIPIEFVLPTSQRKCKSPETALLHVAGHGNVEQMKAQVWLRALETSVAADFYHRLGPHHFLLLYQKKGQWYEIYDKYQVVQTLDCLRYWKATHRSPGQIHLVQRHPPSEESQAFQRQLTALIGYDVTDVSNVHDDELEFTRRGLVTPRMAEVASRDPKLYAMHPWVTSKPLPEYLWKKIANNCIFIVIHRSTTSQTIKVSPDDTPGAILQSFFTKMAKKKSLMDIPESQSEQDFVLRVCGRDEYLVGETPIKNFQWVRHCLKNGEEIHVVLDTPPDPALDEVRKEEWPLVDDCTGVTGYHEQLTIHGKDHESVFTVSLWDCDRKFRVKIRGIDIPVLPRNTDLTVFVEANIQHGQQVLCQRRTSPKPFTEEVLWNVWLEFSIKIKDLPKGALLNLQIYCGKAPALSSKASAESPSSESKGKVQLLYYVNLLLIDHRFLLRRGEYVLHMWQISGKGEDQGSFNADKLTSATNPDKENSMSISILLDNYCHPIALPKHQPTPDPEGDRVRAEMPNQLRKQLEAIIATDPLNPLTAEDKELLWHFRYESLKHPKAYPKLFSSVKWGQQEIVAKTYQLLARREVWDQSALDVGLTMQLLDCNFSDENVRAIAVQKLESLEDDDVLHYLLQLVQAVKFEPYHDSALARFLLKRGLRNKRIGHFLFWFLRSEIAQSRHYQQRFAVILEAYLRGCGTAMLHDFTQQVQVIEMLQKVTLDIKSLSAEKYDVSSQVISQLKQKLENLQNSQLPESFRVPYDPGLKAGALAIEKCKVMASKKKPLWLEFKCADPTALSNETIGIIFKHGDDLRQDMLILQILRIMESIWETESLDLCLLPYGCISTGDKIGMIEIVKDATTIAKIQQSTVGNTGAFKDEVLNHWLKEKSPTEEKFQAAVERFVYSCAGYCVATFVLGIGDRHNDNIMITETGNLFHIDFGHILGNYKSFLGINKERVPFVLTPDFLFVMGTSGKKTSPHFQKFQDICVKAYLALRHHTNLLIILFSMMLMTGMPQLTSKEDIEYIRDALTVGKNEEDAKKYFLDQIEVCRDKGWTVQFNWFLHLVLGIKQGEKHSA

`C[C@H]1CN(C(=O)C2CN(c3cnc4ccc(-c5ccc6oc(N)nc6c5)cc4n3)C2)CCN1` [compound 268]: the IC50 in experiment [1] was less than 10 µM; in experiment [2] it was less than 10 µM; in experiment [3] it was less than 0.1 µM; in experiment [4] it was less than 1 µM; in experiment [5], less than 1 µM.
Consider `CC(C)[C@H](N)C(=O)N1CCN(c2cnc3ccc(-c4ccc5oc(N)nc5c4)cc3n2)CC1` [compound 269], for which the IC50 in experiment [1] was less than 1 µM; in experiment [2], less than 1 µM; in experiment [3], less than 0.1 µM; in experiment [4], less than 10 µM; in experiment [5], less than 10 µM.
Take `CN1CCN(CCNc2cnc3ccc(-c4ccc5oc(N)nc5c4)cc3n2)CC1` [compound 275]: the IC50 is less than 1 µM in experiment [1]; less than 1 µM in experiment [2]; less than 0.1 µM in experiment [3]; less than 1 µM in experiment [4]; less than 1 µM in experiment [5].
Take `Nc1nc2cc(-c3ccc4ncc(N5CCN(C(=O)CN6CCCC6)CC5)nc4c3)ccc2o1` [compound 278]: the IC50 is less than 1 µM in experiment [1]; less than 10 µM in experiment [2]; less than 0.1 µM in experiment [3]; less than 1 µM in experiment [4]; less than 1 µM in experiment [5].
Turning to `CCN(CC)CC(=O)N1CCN(c2cnc3ccc(-c4ccc5oc(N)nc5c4)cc3n2)CC1` [compound 279], the IC50 in experiment [1] was less than 10 µM; in experiment [2] it was less than 10 µM; in experiment [3], less than 0.1 µM; in experiment [4] it was less than 1 µM; in experiment [5] it was less than 10 µM.
In the case of `NC(=O)[C@H]1CCCN1C(=O)C1CN(c2cnc3ccc(-c4ccc5oc(N)nc5c4)cc3n2)C1` [compound 284], the IC50 is less than 10 µM in experiment [1]; less than 10 µM in experiment [2]; less than 0.1 µM in experiment [3]; less than 10 µM in experiment [4]; less than 1 µM in experiment [5].
For `CC(C)N1CCN(C(=O)C2CN(c3cnc4ccc(-c5ccc6oc(N)nc6c5)cc4n3)C2)CC1` [compound 285], the IC50 in experiment [1] was less than 10 µM; in experiment [2] it was less than 1 µM; in experiment [3], less than 0.1 µM; in experiment [4], less than 1 µM; in experiment [5], less than 1 µM.
Take `Nc1nc2cc(-c3ccc4ncc(N5CCN(C(=O)C6(N)CCC6)CC5)nc4c3)ccc2o1` [compound 286]: the IC50 is less than 1 µM in experiment [1]; less than 1 µM in experiment [2]; less than 0.1 µM in experiment [3]; less than 1 µM in experiment [4]; less than 0.1 µM in experiment [5].
With `Nc1nc2cc(-c3ccc4ncc(N5CC(C(=O)N6CCN(CC7CC7)CC6)C5)nc4c3)ccc2o1` [compound 287], the IC50 in experiment [1] was less than 10 µM; in experiment [2], less than 1 µM; in experiment [3] it was less than 0.1 µM; in experiment [4], less than 10 µM; in experiment [5], less than 1 µM.
Regarding `Nc1nc2cc(-c3ccc4ncc(C(=O)NCCCN5CCOCC5)n4c3)ccc2o1` [compound 288], the IC50 was less than 1 µM in experiment [1]; less than 1 µM in experiment [2]; less than 1 µM in experiment [3]; less than 10 µM in experiment [4]; less than 10 µM in experiment [5].
Turning to `Nc1nc2cc(-c3ccc4ncc(C(=O)NCCCN5CCCC5)n4c3)ccc2o1` [compound 293], the IC50 in experiment [1] is less than 1 µM; in experiment [2] it was less than 0.1 µM; in experiment [3], less than 0.1 µM; in experiment [4] it was less than 1 µM; in experiment [5], less than 1 µM.
As for `Nc1nc2cc(-c3ccc4ncc(N5CCN(C(=O)[C@H](N)CO)CC5)nc4c3)ccc2o1` [compound 299], the IC50 in experiment [1] is less than 1 µM; in experiment [2], less than 0.1 µM; in experiment [3], less than 0.1 µM; in experiment [4], less than 1 µM; in experiment [5] it was less than 0.1 µM.
In the case of `Nc1nc2cc(-c3ccc4ncc(N5CC(N6CCN(CCO)CC6)C5)nc4c3)ccc2o1` [compound 333], the IC50 was less than 10 µM in experiment [1]; less than 1 µM in experiment [2]; less than 0.1 µM in experiment [3]; less than 1 µM in experiment [4]; less than 10 µM in experiment [5].
For `Nc1nc2cc(-c3ccc4ncc(N5CC(N6CCS(=O)(=O)CC6)C5)nc4c3)ccc2o1` [compound 334], the IC50 is less than 10 µM in experiment [1]; less than 10 µM in experiment [2]; less than 0.1 µM in experiment [3]; less than 1 µM in experiment [4]; less than 10 µM in experiment [5].
Take `Cc1cn(C2CCN(c3cnc4ccc(-c5ccc6oc(N)nc6c5)cc4n3)CC2)cn1` [compound 338]: the IC50 in experiment [1] was less than 10 µM; in experiment [2] it was less than 10 µM; in experiment [3] it was less than 0.1 µM; in experiment [4], less than 10 µM; in experiment [5] it was less than 10 µM.
Consider `C[C@@H]1CN(C2CN(c3cnc4ccc(-c5ccc6oc(N)nc6c5)cc4n3)C2)CCN1` [compound 355], for which the IC50 is less than 10 µM in experiment [1]; less than 1 µM in experiment [2]; less than 0.1 µM in experiment [3]; less than 1 µM in experiment [4]; less than 10 µM in experiment [5].
Regarding `Nc1nc2cc(-c3ccn4ncc(-c5ccncc5)c4c3)ccc2o1` [compound 356], the IC50 in experiment [1] was less than 0.1 µM; in experiment [2], less than 0.1 µM; in experiment [3] it was less than 0.1 µM; in experiment [4], less than 1 µM; in experiment [5], less than 0.1 µM.
